Test system: GST-tagged Cn
Assay: PEPperPRINT peptide microarray binding assay with GST-tagged Cn
Outline: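 Qualitative binding: peptides printed on a PEPperPRINT microarray were incubated overnight at 4 °C with 1 mg/ml GST-tagged Cn, then detected with Alexa-Fluor 647 anti-GST antibody. Log fluorescence was baseline-corrected, averaged over duplicate spots, Z-normalized and averaged across five repeats.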

[1] = GST-tagged Cn, max over the chip spots listed under Location on chip
[2] = GST-tagged Cn, mean over the chip spots listed under Location on chip
[3] = GST-tagged Cn, max over the spots on the chip (two locations)
[4] = GST-tagged Cn, mean over the spots on the chip (two locations)
[5] = GST-tagged Cn, max over the chip locations
[6] = GST-tagged Cn, mean over the chip locations
[7] = GST-tagged Cn, max over the spots named in Location on chip
[8] = GST-tagged Cn, mean over the spots named in Location on chip
[9] = max over the chip locations listed for the peptide (two spots)
[10] = mean over the chip locations listed for the peptide (two spots)
[11] = max over the spots listed under Location on chip
[12] = mean over the spots listed under Location on chip

TGTLCKSGMLVSTRMS [SeqRBM_1323]
Chip Fluorescence (max) [1]: 0.8817 | Chip Fluorescence (mean) [2]: -0.07521

GGPGTPGRQGGHLAPS [SeqRBMlowT_9820]
Chip Fluorescence (max) [3]: 1.277 | Chip Fluorescence (mean) [4]: -0.2851

HSKLIPKLSFQSPVHH [SeqRBMlowT_814]
Chip Fluorescence (max) [5]: -0.8035 | Chip Fluorescence (mean) [6]: -1.44

TFWTNPQFKITLTEPD [SeqRBMlowT_689]
Chip Fluorescence (max) [3]: 1.036 | Chip Fluorescence (mean) [4]: -0.78

LGRMSPQSTTQALPST [Seqshuffled_9332]
Chip Fluorescence (max) [7]: 1.718 | Chip Fluorescence (mean) [8]: -0.1183

MLDAIPEVVVSPPEEP [SeqRBM_4087]
Chip Fluorescence (max) [7]: 1.659 | Chip Fluorescence (mean) [8]: -0.168

RTRRISPLFDNPNSKQ [Seqshuffled_9774]
Chip Fluorescence (max) [9]: 4.819 | Chip Fluorescence (mean) [10]: 0.7359

TFWTNPQFRVTLTEPD [SeqRBMlowT_9005]
Chip Fluorescence (max) [9]: 5.558 | Chip Fluorescence (mean) [10]: 0.117

NGPSTPTKQGQPMAPS [SeqRBM_8324]
Chip Fluorescence (max) [1]: 0.6682 | Chip Fluorescence (mean) [2]: -0.9835

LKKTYLRREMHGCYNH [Seqrandom_9958]
Chip Fluorescence (max) [7]: 1.4154 | Chip Fluorescence (mean) [8]: 0.777

VEEAFPQIIISAEELP [SeqTRESK_Tarsius_syrichta]
Chip Fluorescence (max) [7]: 1.401 | Chip Fluorescence (mean) [8]: -0.4076

RNPESPSLFLEGHLSR [SeqRBMlowT_8778]
Chip Fluorescence (max) [11]: 3.012 | Chip Fluorescence (mean) [12]: 0.475

TFWTNPQYKVKLEEED [SeqRBMlowT_252]
Chip Fluorescence (max) [3]: 1.065 | Chip Fluorescence (mean) [4]: 0.727

PDEAQPGIVVHVCELP [SeqRBMlowT_301]
Chip Fluorescence (max) [3]: 1.28 | Chip Fluorescence (mean) [4]: 0.6681

HSKSSPKLSISSPVHH [SeqRBMlowT_1628]
Chip Fluorescence (max) [11]: 3.1562 | Chip Fluorescence (mean) [12]: 1.038

STEIIATLFVQVANEY [Seqshuffled_9888]
Chip Fluorescence (max) [7]: 1.433 | Chip Fluorescence (mean) [8]: -0.5855

RNPGTALLELRGHSAS [SeqRBMlowT_6200]
Chip Fluorescence (max) [11]: 2.68 | Chip Fluorescence (mean) [12]: 1.087

PENKFQPFAIKLCVKG [Seqshuffled_5021]
Chip Fluorescence (max) [1]: 0.8772 | Chip Fluorescence (mean) [2]: -0.6992

TNSHNPQVDLKIPQVR [SeqRBMlowT_6893]
Chip Fluorescence (max) [9]: 5.271 | Chip Fluorescence (mean) [10]: 0.9753

VRFTLPEKQVHSSAPS [SeqRBM_2315]
Chip Fluorescence (max) [1]: 0.7129 | Chip Fluorescence (mean) [2]: -0.8346

TFWTNPQYRVTVTDPD [SeqRBMlowT_615]
Chip Fluorescence (max) [7]: 1.649 | Chip Fluorescence (mean) [8]: 0.4883

KAYINPSMVFIEGGRR [SeqRBM_7863]
Chip Fluorescence (max) [11]: 2.964 | Chip Fluorescence (mean) [12]: 0.9132

GDPITVTFSFKQQSIR [Seqshuffled_9986]
Chip Fluorescence (max) [9]: 4.236 | Chip Fluorescence (mean) [10]: -0.3717

NMGTGVGIVITITEAV [SeqAKAP79_Meleagris_gallopavo]
Chip Fluorescence (max) [11]: 2.665 | Chip Fluorescence (mean) [12]: 0.9097

FSGNQPAIVVHTCEDP [SeqRBM_2445]
Chip Fluorescence (max) [5]: 0.03592 | Chip Fluorescence (mean) [6]: -0.8656

HSKSIPKFSFQSPVHH [SeqRBMlowT_1680]
Chip Fluorescence (max) [5]: 0.06895 | Chip Fluorescence (mean) [6]: -0.7142

TFWMNPQYMIKLEEED [SeqCAPN11_Monodelphis_domestica]
Chip Fluorescence (max) [9]: 4.262 | Chip Fluorescence (mean) [10]: 0.2921

KDKAGKRSHLKGHSES [Seqshuffled_5410]
Chip Fluorescence (max) [1]: 0.8078 | Chip Fluorescence (mean) [2]: -0.09052

SNSTNPEITITPAELC [SeqRIPOR2_Tarsius_syrichta]
Chip Fluorescence (max) [9]: 7.538 | Chip Fluorescence (mean) [10]: 1.227

TFWTNPQYRITVTDED [SeqRBMlowT_7478]
Chip Fluorescence (max) [1]: 0.9083 | Chip Fluorescence (mean) [2]: -0.5067

TFWTNPQYVITLEEPD [SeqRBMlowT_2279]
Chip Fluorescence (max) [7]: 1.482 | Chip Fluorescence (mean) [8]: 0.5155

QLRDIFQGRMITILTP [Seqshuffled_3466]
Chip Fluorescence (max) [1]: 0.7348 | Chip Fluorescence (mean) [2]: -0.3913

KHLDVPDIIITPPTPT [SeqC16orf74_Pan_troglodytes]
Chip Fluorescence (max) [9]: 11.1628 | Chip Fluorescence (mean) [10]: 2.896

EGKMDPELYISTVEAQ [SeqRBM_3392]
Chip Fluorescence (max) [9]: 3.895 | Chip Fluorescence (mean) [10]: 0.1296

KTGMATDMQFNPIEQH [Seqshuffled_2687]
Chip Fluorescence (max) [1]: 0.7078 | Chip Fluorescence (mean) [2]: 0.0887

TFWTNPQFTITLEEPD [SeqRBMlowT_1494]
Chip Fluorescence (max) [7]: 1.659 | Chip Fluorescence (mean) [8]: -0.5285

TFWTNPQFKITLEEVD [SeqRBMlowT_4669]
Chip Fluorescence (max) [3]: 1.236 | Chip Fluorescence (mean) [4]: 0.1676

TFWMNPQYKIKLEEPD [SeqRBMlowT_4687]
Chip Fluorescence (max) [7]: 1.8162 | Chip Fluorescence (mean) [8]: 0.005772

TFWTNPQYRVHVPDED [SeqRBMlowT_2927]
Chip Fluorescence (max) [3]: 1.2431 | Chip Fluorescence (mean) [4]: -0.6745

GHSHNPSITITFAEAE [SeqRBM_9189]
Chip Fluorescence (max) [9]: 4.764 | Chip Fluorescence (mean) [10]: 1.127

PSLYENALGMEAFTIS [SeqRBMlowT_4846]
Chip Fluorescence (max) [7]: 1.442 | Chip Fluorescence (mean) [8]: 0.7319

ARPPNAAFVLDQETTY [Seqshuffled_9990]
Chip Fluorescence (max) [3]: 1.0396 | Chip Fluorescence (mean) [4]: 0.6258

RSPGTFPLELSGHKKQ [SeqRBMlowT_6356]
Chip Fluorescence (max) [3]: 1.326 | Chip Fluorescence (mean) [4]: -0.7748

SFWANPQFIVSLEEPD [SeqRBMlowT_610]
Chip Fluorescence (max) [1]: 0.3721 | Chip Fluorescence (mean) [2]: -0.5491

KAYMNPYMQFIDGGRR [SeqRBMlowT_4720]
Chip Fluorescence (max) [3]: 1.204 | Chip Fluorescence (mean) [4]: -0.1516

SNLACNDRHPNNEDAK [Seqshuffled_9450]
Chip Fluorescence (max) [9]: 5.333 | Chip Fluorescence (mean) [10]: 1.133

TFWTNPQYRIKVTDPD [SeqRBMlowT_12]
Chip Fluorescence (max) [5]: -0.2746 | Chip Fluorescence (mean) [6]: -1.188

STSSLPTFSFSTPPPT [SeqRBMlowT_1617]
Chip Fluorescence (max) [3]: 1.022 | Chip Fluorescence (mean) [4]: -1.34

QHMSVPKIQVTPTEIE [SeqRBM_9954]
Chip Fluorescence (max) [9]: 4.025 | Chip Fluorescence (mean) [10]: 2.718

KFPGAEFLPQTLTPPP [Seqshuffled_9792]
Chip Fluorescence (max) [1]: 0.7156 | Chip Fluorescence (mean) [2]: -0.9321

GGPGTPTRQGQHLAPG [SeqRBMlowT_9846]
Chip Fluorescence (max) [9]: 21.0979 | Chip Fluorescence (mean) [10]: 2.702

TSPDQPCIDVHQSESE [SeqRBM_4309]
Chip Fluorescence (max) [11]: 2.7949 | Chip Fluorescence (mean) [12]: 0.9383

FAKHWPKLSDVSPVAH [SeqRBM_8299]
Chip Fluorescence (max) [5]: 0.2862 | Chip Fluorescence (mean) [6]: -1.095

TFWTNPQYRVKLEDPD [SeqRBMlowT_28]
Chip Fluorescence (max) [7]: 1.52 | Chip Fluorescence (mean) [8]: 0.4012

GTSGGFPQTDRSHKKQ [SeqRBM_413]
Chip Fluorescence (max) [9]: 3.637 | Chip Fluorescence (mean) [10]: -0.2581

HVEDTTEFALQRPSND [Seqshuffled_9422]
Chip Fluorescence (max) [7]: 1.612 | Chip Fluorescence (mean) [8]: 0.1762

YFFDRDTGAGKIEQEH [Seqrandom_9991]
Chip Fluorescence (max) [11]: 2.629 | Chip Fluorescence (mean) [12]: -0.3443

RNPGSPVLELEGHSAS [SeqRBMlowT_6392]
Chip Fluorescence (max) [5]: -0.1475 | Chip Fluorescence (mean) [6]: -0.4043

ADEAPPEITITPAELP [SeqRBMlowT_445]
Chip Fluorescence (max) [9]: 5.264 | Chip Fluorescence (mean) [10]: 0.1816

PSMYQPHIIVKVAETE [SeqRBM_4049]
Chip Fluorescence (max) [3]: 1.118 | Chip Fluorescence (mean) [4]: 0.1884

KSKSIPKISIQSPVHH [SeqRBMlowT_1684]
Chip Fluorescence (max) [11]: 2.868 | Chip Fluorescence (mean) [12]: 0.2995

ADEAVPEITITPAELP [SeqRBMlowT_1267]
Chip Fluorescence (max) [11]: 2.637 | Chip Fluorescence (mean) [12]: 0.3175

GGPGTPGRQGQPLAPS [SeqRBMlowT_7795]
Chip Fluorescence (max) [7]: 1.388 | Chip Fluorescence (mean) [8]: -0.6767

TFWTNPQFRLKLEDPD [SeqRBMlowT_699]
Chip Fluorescence (max) [1]: 0.8365 | Chip Fluorescence (mean) [2]: -0.3514
